Measured values as given in patent publication US11274332B2, “Methods of administering 3,4-diaminopyridine” (SERB SA, priority 2011, dated 2022).
Where two headings read alike, the source gives them in different places.

Experiment: Example 18 Part 2: multiple dose PK (20 mg QID) of 3,4-DAP and 3-N-acetyl metabolite in slow and fast acetylators
Type: in vivo, human
Conditions: for AUC(0-t) / Cmax / Tmax / Vd/F / half-life: both sexes, human, plasma, oral, 20 mg; for Tmax: read-out: Mean Tmax; for Vd/F: read-out: Mean Vz/F; for half-life: read-out: Mean t1/2 (converted)
Experimental: The following method was used to analyze concentrations of 3,4-diaminopyridine and N-(4-aminopyridin-3-yl)acetamide in plasma and urine samples for the experiments in Example 18. In the LC/MS/MS method, the human plasma and urine samples were extracted using acetonitrile containing 0.1% formic acid. Samples were analyzed by using HPLC with positive ion electrospray MS/MS detection. The column was an Atlantis HILIC Silica column (3 μm, 3×50 mm) at a temperature of 40° C. Mobile phase A was water containing ammonium formate (20 mM) and 0.1% formic acid. Mobile phase B was acetonitrile/isopropanol (90/10; v/v) containing 0.1% formic acid. The flow rate was 0.90 mL/minute. The gradient conditions for human plasma and urine samples were as follows:
The LC/MS/MS method was validated to quantify 3,4-DAP in human plasma in the linear calibration range of 0.500 to 500 ng/mL and from 1.00 to 1000 ng/mL for the 3-N-acetyl metabolite.
The primary objective of the study was to assess the safety and tolerability of 3,4-DAP phosphate after single and multiple doses. The secondary objectives of the study were • Part 1 only: To determine the dose-related PK profile of amifampridine and of 3-N-acetyl amifampridine after single, escalating doses of 3,4-DAP phosphate • Part 2 only: To assess the steady-state plasma PK and accumulation of amifampridine and of 3-N-acetyl amifampridine over multiple days of dosing with 3,4-DAP phosphate An exploratory objective was to examine the overall activity of the N-acetyl transferase enzymes on the metabolism of amifampridine by assessing the PK of amifampridine and 3-N-acetyl amifampridine with phenotypic acetylation activity and genotyping determination of NAT2 gene polymorphisms. Study Design and Plan
This open-label study in healthy subjects (male and female) was conducted in 2 parts. A total of 26 healthy male and female subjects, 12 in Part 1 (at least 5 of each sex), 4 in Part 2 Group 1, and 10 in Part 2 Group 2 (at least 4 of each sex) were enrolled into the study. The same subjects were not enrolled to participate in both parts. Subjects in Part 2 were dosed only after all subjects of Part 1 completed dosing and at least 24-hours of follow-up safety evaluation after the last dose were completed.
All subjects were characterized for their metabolic acetylation phenotype and NAT2 genotype in order to divide subjects into two groups of acetylators. Volunteers were genetically typed for highly variant alleles of the N-acetyl transferase 2 enzyme (NAT2) domain on chromosome 8 (according to Example 16) and were phenotyped for acetylation rates with a caffeine challenge test (according to Example 15a). Approximately equal numbers of slow and fast acetylators (as defined by a caffeine challenge test in Example 15a) were enrolled in each group. In Part 2, very slow acetylators with NAT2 activity (ratio 1, Example 15a) below 0.06 were excluded from participation in the study. In each part of the study, subjects were assessed for PK, safety, and tolerability and all doses were administered within 30 min of ingestion of a meal or a snack.
Part 2, Group 1: Four sentinel subjects were selected after determining their acetylator status. Two were fast acetylators and two were slow acetylators. All four were dosed on Day 1 with 4 oral doses of 20 mg of 34-DAP phosphate (given at 4-hour dosing intervals). On Days […] and 2, safety and tolerability data was collected. Subjects left the clinic on Day 2. The safety and tolerability data collected for these 4 sentinel subjects were reviewed. The safety and tolerability results of Days 1 and 2 for these subjects were acceptable and thus Part 2 Group 2 was commenced. Minimally acceptable safety was defined as the absence of clinical seizure activity. Subjects in Group 1 returned to the clinic for their follow-up assessments 2-4 days following their last dose.
Each subject was given a final morning dose of 20 mg 3,4-DAP phosphate on Day 4. […]

[1] = Day 1, Dose 1, fast acetylators, 20 mg QID
[2] = Day 1, Dose 1, slow acetylators, 20 mg QID
[3] = Day 1, Dose 2, fast acetylators, 20 mg QID
[4] = Day 1, Dose 2, slow acetylators, 20 mg QID
[5] = Day 1, Dose 3, fast acetylators, 20 mg QID
[6] = Day 1, Dose 3, slow acetylators, 20 mg QID
[7] = Day 1, Dose 4, fast acetylators, 20 mg QID
[8] = Day 1, Dose 4, slow acetylators, 20 mg QID
[9] = Day 3, Dose 1, fast acetylators, 20 mg QID
[10] = Day 3, Dose 1, slow acetylators, 20 mg QID
[11] = Day 3, Dose 2, fast acetylators, 20 mg QID
[12] = Day 3, Dose 2, slow acetylators, 20 mg QID
[13] = Day 3, Dose 3, fast acetylators, 20 mg QID
[14] = Day 3, Dose 3, slow acetylators, 20 mg QID
[15] = Day 3, Dose 4, fast acetylators, 20 mg QID
[16] = Day 3, Dose 4, slow acetylators, 20 mg QID
[17] = Day 4, 20 mg single dose, fast acetylators
[18] = Day 4, 20 mg single dose, slow acetylators

## Nc1ccncc1N [3,4-DAP, 3,4-diaminopyridine]
[1]
  Mean CL/F: 898 L/h
  Tmax: 0.809 h
  Vd/F: 1330 L
  half-life: 1.12 h
[2]
  Mean CL/F: 152 L/h
  Tmax: 1.12 h
  Vd/F: 299 L
  half-life: 1.39 h
[3]
  Mean CL/F: 757 L/h
  Tmax: 1.07 h
  Vd/F: 1340 L
  half-life: 1.31 h
[4]
  Mean CL/F: 107 L/h
  Tmax: 1.14 h
  Vd/F: 293 L
  half-life: 1.93 h
[5]
  Mean CL/F: 879 L/h
  Tmax: 0.583 h
  Vd/F: 1720 L
  half-life: 1.3 h
[6]
  Mean CL/F: 117 L/h
  Tmax: 0.857 h
  Vd/F: 269 L
  half-life: 1.59 h
[7]
  Mean CL/F: 885 L/h
  Tmax: 0.643 h
  Vd/F: 1730 L
  half-life: 1.49 h
[8]
  Mean CL/F: 101 L/h
  Tmax: 1.29 h
  Vd/F: 338 L
  half-life: 2.52 h
[9]
  Mean CL/F: 973 L/h
  Tmax: 0.8 h
  Vd/F: 1390 L
  half-life: 1.07 h
[10]
  Mean CL/F: 124 L/h
  Tmax: 1 h
  Vd/F: 283 L
  half-life: 1.6 h
[11]
  Mean CL/F: 607 L/h
  Tmax: 0.9 h
  Vd/F: 1110 L
  half-life: 1.34 h
[12]
  Mean CL/F: 92.9 L/h
  Tmax: 1 h
  Vd/F: 260 L
  half-life: 1.97 h
[13]
  Mean CL/F: 817 L/h
  Tmax: 0.532 h
  Vd/F: 2200 L
  half-life: 1.73 h
[14]
  Mean CL/F: 103 L/h
  Tmax: 0.8 h
  Vd/F: 241 L
  half-life: 1.63 h
[15]
  Mean CL/F: 795 L/h
  Tmax: 0.8 h
  Vd/F: 1870 L
  half-life: 1.82 h
[16]
  Mean CL/F: 73.2 L/h
  Tmax: 0.6 h
  Vd/F: 376 L
  half-life: 3.56 h
[17]
  Mean CL/F: 673 L/h
  Tmax: 0.9 h
  Vd/F: 1770 L
  half-life: 1.95 h
[18]
  Mean CL/F: 108 L/h
  Tmax: 1.2 h
  Vd/F: 486 L
  half-life: 3.24 h
Day 1, Dose 1, fast acetylators, 20 mg QID, read-out: Mean AUC0-4
  AUC(0-t): 23.5 ng·h/mL
Day 1, Dose 1, fast acetylators, 20 mg QID, read-out: Mean Cmax
  Cmax: 24.4 ng/mL
Day 1, Dose 1, slow acetylators, 20 mg QID, read-out: Mean AUC0-4
  AUC(0-t): 115 ng·h/mL
Day 1, Dose 1, slow acetylators, 20 mg QID, read-out: Mean Cmax
  Cmax: 74.8 ng/mL
Day 1, Dose 1-4, fast acetylators, 20 mg QID, read-out: Mean AUC0-24
  AUC(0-t): 97.9 ng·h/mL
Day 1, Dose 1-4, slow acetylators, 20 mg QID, read-out: Mean AUC0-24
  AUC(0-t): 630 ng·h/mL
Day 1, Dose 2, fast acetylators, 20 mg QID, read-out: Mean AUC0-4
  AUC(0-t): 22.5 ng·h/mL
Day 1, Dose 2, fast acetylators, 20 mg QID, read-out: Mean Cmax
  Cmax: 13.3 ng/mL
Day 1, Dose 2, slow acetylators, 20 mg QID, read-out: Mean AUC0-4
  AUC(0-t): 152 ng·h/mL
Day 1, Dose 2, slow acetylators, 20 mg QID, read-out: Mean Cmax
  Cmax: 83.7 ng/mL
Day 1, Dose 3, fast acetylators, 20 mg QID, read-out: Mean AUC0-4
  AUC(0-t): 24.1 ng·h/mL
Day 1, Dose 3, fast acetylators, 20 mg QID, read-out: Mean Cmax
  Cmax: 16.8 ng/mL
Day 1, Dose 3, slow acetylators, 20 mg QID, read-out: Mean AUC0-4
  AUC(0-t): 140 ng·h/mL
Day 1, Dose 3, slow acetylators, 20 mg QID, read-out: Mean Cmax
  Cmax: 72.2 ng/mL
Day 1, Dose 4, fast acetylators, 20 mg QID, read-out: Mean AUC0-4
  AUC(0-t): 23.7 ng·h/mL
Day 1, Dose 4, fast acetylators, 20 mg QID, read-out: Mean Cmax
  Cmax: 16.4 ng/mL
Day 1, Dose 4, slow acetylators, 20 mg QID, read-out: Mean AUC0-4
  AUC(0-t): 145 ng·h/mL
Day 1, Dose 4, slow acetylators, 20 mg QID, read-out: Mean Cmax
  Cmax: 67.1 ng/mL
Day 3, Dose 1, fast acetylators, 20 mg QID, read-out: Mean AUC0-4
  AUC(0-t): 24.9 ng·h/mL
Day 3, Dose 1, fast acetylators, 20 mg QID, read-out: Mean Cmax
  Cmax: 24 ng/mL
Day 3, Dose 1, slow acetylators, 20 mg QID, read-out: Mean AUC0-4
  AUC(0-t): 130 ng·h/mL
Day 3, Dose 1, slow acetylators, 20 mg QID, read-out: Mean Cmax
  Cmax: 81.2 ng/mL
Day 3, Dose 1-4, fast acetylators, 20 mg QID, read-out: Mean AUC0-24
  AUC(0-t): 111 ng·h/mL
Day 3, Dose 1-4, slow acetylators, 20 mg QID, read-out: Mean AUC0-24
  AUC(0-t): 701 ng·h/mL
Day 3, Dose 2, fast acetylators, 20 mg QID, read-out: Mean AUC0-4
  AUC(0-t): 28.5 ng·h/mL
Day 3, Dose 2, fast acetylators, 20 mg QID, read-out: Mean Cmax
  Cmax: 18.7 ng/mL
Day 3, Dose 2, slow acetylators, 20 mg QID, read-out: Mean AUC0-4
  AUC(0-t): 164 ng·h/mL
Day 3, Dose 2, slow acetylators, 20 mg QID, read-out: Mean Cmax
  Cmax: 96.1 ng/mL
Day 3, Dose 3, fast acetylators, 20 mg QID, read-out: Mean AUC0-4
  AUC(0-t): 25.8 ng·h/mL
Day 3, Dose 3, fast acetylators, 20 mg QID, read-out: Mean Cmax
  Cmax: 21.9 ng/mL
Day 3, Dose 3, slow acetylators, 20 mg QID, read-out: Mean AUC0-4
  AUC(0-t): 156 ng·h/mL
Day 3, Dose 3, slow acetylators, 20 mg QID, read-out: Mean Cmax
  Cmax: 80.9 ng/mL
Day 3, Dose 4, fast acetylators, 20 mg QID, read-out: Mean AUC0-4
  AUC(0-t): 25.1 ng·h/mL
Day 3, Dose 4, fast acetylators, 20 mg QID, read-out: Mean Cmax
  Cmax: 16.2 ng/mL
Day 3, Dose 4, slow acetylators, 20 mg QID, read-out: Mean AUC0-4
  AUC(0-t): 168 ng·h/mL
Day 3, Dose 4, slow acetylators, 20 mg QID, read-out: Mean Cmax
  Cmax: 97.1 ng/mL
Day 4, 20 mg single dose, fast acetylators, read-out: Mean AUC0-4
  AUC(0-t): 22.6 ng·h/mL
Day 4, 20 mg single dose, fast acetylators, read-out: Mean AUC0-24
  AUC(0-t): 25.9 ng·h/mL
Day 4, 20 mg single dose, fast acetylators, read-out: Mean Cmax
  Cmax: 13.6 ng/mL
Day 4, 20 mg single dose, slow acetylators, read-out: Mean AUC0-4
  AUC(0-t): 133 ng·h/mL
Day 4, 20 mg single dose, slow acetylators, read-out: Mean AUC0-24
  AUC(0-t): 186 ng·h/mL
Day 4, 20 mg single dose, slow acetylators, read-out: Mean Cmax
  Cmax: 72.5 ng/mL
Days 1-4, 20 mg QID, fast acetylators, read-out: plasma mean Cmax values, range
  Cmax: 13.3 to 24.4 ng/mL
Days 1-4, 20 mg QID, slow acetylators, read-out: plasma mean Cmax values, range
  Cmax: 67.1 to 97.1 ng/mL
